Measured values published in US12681007B2, “High throughput method for constructing and screening compound library and reaction device” (ZH[…] (SHENZHEN) CO., LTD., priority 2019, dated 2026).

Each compound was assayed on A549 (lung cancer) cells (assay: MTT screening of Erlotinib derivatives on A549 cells). Conditions: compound 10 μM, 24 hours, ratio of survival rate with derivative to survival rate with Erlotinib (lower = more active), unpurified in-situ reaction products.
Assay type: cell-based
Description: Screening 840 Erlotinib derivatives by MTT method, operating steps: • (1) A549 (lung cancer) cells were adhered overnight: the logarithmic growth phase cells were digested and then counted, and were laid on 96 well plates overnight with 5000 cells per well. • (2) Adding drug: the compound concentration was diluted to 10 μM with complete culture solution, and the supernatant was discarded, and a volume of 100 μL per well was administrated and treated for 24 hours. • (3) Adding MTT: 20 μL MTT (5 mg/ml) was added to each well and cultured for 4 hours. • (4) Measuring the absorbance value: discarding the supernatant, 150 μL DMSO was added to each well, shaken for 10 minutes to make the crystals fully dissolved. The absorbance at 570 nm was measured by microplate reader.
The relative survival rate was calculated as the ratio of the survival rate of cells treated with Erlotinib derivatives to the survival rate of cells treated with positive compounds (Erlotinib), where lower relative survival rate means the activity of the compounds are better.

Question: For `COCCOc1cc2ncnc(Nc3cccc(-c4cn(CC5=CCC(O)C=C5)nn4)c3)c2cc1OCCOC` (centres unmarked) [Compound 25], which Relative survival rate is on record?
Answer: 0.885

Question: Which Relative survival rate does the source give for `COCCOc1cc2ncnc(Nc3cccc(-c4cn(-c5cc(C)nn5-c5ccccc5)nn4)c3)c2cc1OCCOC` [Compound 47] here?
Answer: 0.893

Question: `COCCOc1cc2ncnc(Nc3cccc(-c4cn(CCc5ccccn5)nn4)c3)c2cc1OCCOC` [Compound 99] was tested. Which Relative survival rate did it give?
Answer: 0.888

Question: For `COCCOc1cc2ncnc(Nc3cccc(-c4cn(CCc5cccc(OC)c5)nn4)c3)c2cc1OCCOC` [Compound 20], which Relative survival rate is on record?
Answer: 0.993

Question: `COCCOc1cc2ncnc(Nc3cccc(-c4cn(-c5ccccc5)nn4)c3)c2cc1OCCOC` [Compound 266] was tested. Which Relative survival rate did it give?
Answer: 1.130

Question: How did the Relative survival rate turn out when `COCCOc1cc2ncnc(Nc3cccc(-c4cn(-c5ccc(O)c(C(=O)O)c5)nn4)c3)c2cc1OCCOC` [Compound 267] was run?
Answer: 1.129

Question: With `COCCOc1cc2ncnc(Nc3cccc(-c4cn([C@H]5CCc6nc(N)sc6C5)nn4)c3)c2cc1OCCOC` [Compound 22] as the compound, how does the Relative survival rate read?
Answer: 0.866

Question: With `COCCOc1cc2ncnc(Nc3cccc(-c4cn(Cc5ccc(Cl)nc5)nn4)c3)c2cc1OCCOC` [Compound 98] as the compound, how does the Relative survival rate read?
Answer: 0.959

Question: How did the Relative survival rate turn out when `COCCOc1cc2ncnc(Nc3cccc(-c4cn([C@@H](C)C(=O)OCc5ccccc5)nn4)c3)c2cc1OCCOC` [Compound 96] was run?
Answer: 0.829

Question: How did the Relative survival rate turn out when `COCCOc1cc2ncnc(Nc3cccc(-c4cn(CCc5c[nH]c6cc(Cl)ccc56)nn4)c3)c2cc1OCCOC` [Compound 90] was run?
Answer: 0.522

Question: With `COCCOc1cc2ncnc(Nc3cccc(-c4cn(CCCOCc5ccccc5)nn4)c3)c2cc1OCCOC` [Compound 85] as the compound, how does the Relative survival rate read?
Answer: 0.867

Question: How did the Relative survival rate turn out when `COCCOc1cc2ncnc(Nc3cccc(-c4cn([C@@H](Cc5ccccc5)C(=O)OC)nn4)c3)c2cc1OCCOC` [Compound 94] was run?
Answer: 0.885

Question: How did the Relative survival rate turn out when `COCCOc1cc2ncnc(Nc3cccc(-c4cn(-c5ccc(C)cc5C(=O)O)nn4)c3)c2cc1OCCOC` [Compound 268] was run?
Answer: 1.311

Question: With `COCCOc1cc2ncnc(Nc3cccc(-c4cn(Cc5cc(C)on5)nn4)c3)c2cc1OCCOC` [Compound 54] as the compound, how does the Relative survival rate read?
Answer: 0.878

Question: Which Relative survival rate does the source give for `COCCOc1cc2ncnc(Nc3cccc(-c4cn(-c5ccc(Cc6ccccc6)cc5)nn4)c3)c2cc1OCCOC` [Compound 269] here?
Answer: 1.289

Question: Which Relative survival rate does the source give for `COCCOc1cc2ncnc(Nc3cccc(-c4cn(Cc5ccccc5S(C)(=O)=O)nn4)c3)c2cc1OCCOC` [Compound 55] here?
Answer: 0.814

Question: How did the Relative survival rate turn out when `COCCOc1cc2ncnc(Nc3cccc(-c4cn(C5CCCc6ccccc65)nn4)c3)c2cc1OCCOC` (centres unmarked) [Compound 89] was run?
Answer: 0.577

Question: With `CCOc1ccccc1Cn1cc(-c2cccc(Nc3ncnc4cc(OCCOC)c(OCCOC)cc34)c2)nn1` [Compound 48] as the compound, how does the Relative survival rate read?
Answer: 0.971

Question: With `COCCOc1cc2ncnc(Nc3cccc(-c4cn(Cc5cccc(C(=O)OC)c5)nn4)c3)c2cc1OCCOC` [Compound 50] as the compound, how does the Relative survival rate read?
Answer: 0.951

Question: Which Relative survival rate does the source give for `COCCOc1cc2ncnc(Nc3cccc(-c4cn(CCc5cccc([N+](=O)[O-])c5)nn4)c3)c2cc1OCCOC` [Compound 49] here?
Answer: 0.913

Question: With `COCCOc1cc2ncnc(Nc3cccc(-c4cn(Cc5ccsc5)nn4)c3)c2cc1OCCOC` [Compound 57] as the compound, how does the Relative survival rate read?
Answer: 0.957

Question: For `COCCOc1cc2ncnc(Nc3cccc(-c4cn(C(C)(C)c5cc(F)cc(F)c5)nn4)c3)c2cc1OCCOC` [Compound 56], which Relative survival rate is on record?
Answer: 0.978

Question: `COCCOc1cc2ncnc(Nc3cccc(-c4cn(C(C)(Cc5ccccc5)C(=O)OC)nn4)c3)c2cc1OCCOC` (centres unmarked) [Compound 24] was tested. Which Relative survival rate did it give?
Answer: 0.557

Question: With `COCCOc1cc2ncnc(Nc3cccc(-c4cn(C[C@@H](O)c5ccccc5)nn4)c3)c2cc1OCCOC` [Compound 84] as the compound, how does the Relative survival rate read?
Answer: 0.988

Question: For `CCOC(=O)[C@H](Cc1ccc(O)cc1)n1cc(-c2cccc(Nc3ncnc4cc(OCCOC)c(OCCOC)cc34)c2)nn1` [Compound 26], which Relative survival rate is on record?
Answer: 0.942

Question: Which Relative survival rate does the source give for `COCCOc1cc2ncnc(Nc3cccc(-c4cn(CCc5ccc6ccccc6c5)nn4)c3)c2cc1OCCOC` [Compound 97] here?
Answer: 0.654

Question: How did the Relative survival rate turn out when `COCCOc1cc2ncnc(Nc3cccc(-c4cn([C@H](C)c5nc6ccccc6[nH]5)nn4)c3)c2cc1OCCOC` [Compound 52] was run?
Answer: 0.993

Question: How did the Relative survival rate turn out when `COCCOc1cc2ncnc(Nc3cccc(-c4cn(CCc5cccc(F)c5)nn4)c3)c2cc1OCCOC` [Compound 86] was run?
Answer: 0.861

Question: Which Relative survival rate does the source give for `COCCOc1cc2ncnc(Nc3cccc(-c4cn([C@H](CO)C(=O)OCc5ccccc5)nn4)c3)c2cc1OCCOC` [Compound 51] here?
Answer: 0.989

Question: `COCCOc1cc2ncnc(Nc3cccc(-c4cn([C@H](Cc5ccc(O)cc5)C(=O)OC)nn4)c3)c2cc1OCCOC` [Compound 88] was tested. Which Relative survival rate did it give?
Answer: 0.889

Question: `COCCOc1cc2ncnc(Nc3cccc(-c4cn([C@@H](Cc5ccccc5)C(=O)OC(C)(C)C)nn4)c3)c2cc1OCCOC` [Compound 23] was tested. Which Relative survival rate did it give?
Answer: 0.874

Question: Which Relative survival rate does the source give for `COCCOc1cc2ncnc(Nc3cccc(-c4cn(CC(O)c5cccc(Cl)c5)nn4)c3)c2cc1OCCOC` (centres unmarked) [Compound 92] here?
Answer: 0.854

Question: How did the Relative survival rate turn out when `COCCOc1cc2ncnc(Nc3cccc(-c4cn(-c5ccc(CC(=O)OC)cc5)nn4)c3)c2cc1OCCOC` [Compound 270] was run?
Answer: 1.200

Question: For `COCCOc1cc2ncnc(Nc3cccc(-c4cn(CCc5cccc(C(F)(F)F)c5)nn4)c3)c2cc1OCCOC` [Compound 93], which Relative survival rate is on record?
Answer: 0.621

Question: `COCCOc1cc2ncnc(Nc3cccc(-c4cn(CC(O)c5cccc(O)c5)nn4)c3)c2cc1OCCOC` (centres unmarked) [Compound 95] was tested. Which Relative survival rate did it give?
Answer: 0.971

Question: Which Relative survival rate does the source give for `COCCOc1cc2ncnc(Nc3cccc(-c4cn(C(C)(C)c5ccccc5)nn4)c3)c2cc1OCCOC` [Compound 27] here?
Answer: 0.862

Question: For `COCCOc1cc2ncnc(Nc3cccc(-c4cn(CCc5ccc(Cl)c(Cl)c5)nn4)c3)c2cc1OCCOC` [Compound 87], which Relative survival rate is on record?
Answer: 0.850

Question: Which Relative survival rate does the source give for `COCCOc1cc2ncnc(Nc3cccc(-c4cn(Cc5c[nH]cn5)nn4)c3)c2cc1OCCOC` [Compound 53] here?
Answer: 0.928
